Calls of active or inactive are those of the source. The calls are words filed in the database; no cut-off is given here.
Experiments:
SH-SY5Y [1] = test: Neuroprotective activity against NMDA-induced cell damage in human SH-SY5Y cells assessed as cell viability at 5 uM preincubated for 8 hrs followed by NMDA addition and further incubated for 30 mins and measured after 12 hrs by MTT assay relative to control; assay type: functional; conditions: read-out: Activity
SH-SY5Y [2] = test: Neuroprotective activity against NMDA-induced cell damage in human SH-SY5Y cells assessed as cell viability at 0.5 uM preincubated for 8 hrs followed by NMDA addition and further incubated for 30 mins and measured after 12 hrs by MTT assay relative to control; assay type: functional; conditions: read-out: Activity
SH-SY5Y [3] = test: Neuroprotective activity against NMDA-induced cell damage in human SH-SY5Y cells assessed as cell viability at 0.05 uM preincubated for 8 hrs followed by NMDA addition and further incubated for 30 mins and measured after 12 hrs by MTT assay relative to control; assay type: functional; conditions: read-out: Activity
[4] = molecular target: T1, Glutamate [NMDA] receptor (Homo sapiens) (UniProt Q05586+Q12879+Q13224+O15399+O60391+Q14957+Q8TCU5); test: Antagonist activity at NMDA receptor in human SH-SY5Y cells assessed as reduction in NMDA-stimulated calcium ion influx at 5 uM measured after 3 hrs by Fluo-3 AM indicator based laser scanning confocal microscopy analysis; assay type: cell-based
Mus musculus [5] = test: Memory enhancement effect in C57BL/6 mouse model of bilateral common carotid artery occlusion-induced brain ischemia assessed as increase in preferential index at 50 mg/kg/day, po via gavage after 24 hrs post surgery measured on day 9 to 12 after 1 hr by novel object recognition test; assay type: functional, organism-based
Mus musculus [6] = test: Cognitive enhancing effect in C57BL/6 mouse model of bilateral common carotid artery occlusion-induced brain ischemia assessed as increase in spontaneous alternation behavior at 10 to 50 mg/kg/day, po via gavage at 24 hrs post surgery on day 8 after 1 hr drug administration by Y-maze test; assay type: functional, organism-based
Mus musculus [7] = test: (§1) Improvement in spatial memory impairment in C57BL/6 mouse model of bilateral common carotid artery occlusion-induced brain ischemia assessed as increase in swimming distance at 10 to 50 mg/kg/day, po via gavage at 24 hrs post surgery and 1 hr prior to the test measured on day 14 to 17 by Morris water maze test; assay type: functional, organism-based
Mus musculus [8] = test: as §1, with “time spent in correct quadrant” for “swimming distance”; assay type: functional, organism-based
Mus musculus [9] = test: Memory enhancement effect in C57BL/6 mouse model of bilateral common carotid artery occlusion-induced brain ischemia assessed as increase in discrimination index at 50 mg/kg/day, po via gavage 24 hrs post surgery measured on day 9 to 12 after 24 hrs by novel object recognition test; assay type: functional, organism-based
Mus musculus [10] = test: Cognitive enhancing effect in C57BL/6 mouse model of bilateral common carotid artery occlusion-induced brain ischemia at 50 mg/kg/day, po via gavage at 24 hrs post surgery after day 17; assay type: functional, organism-based
Mus musculus [11] = test: Improvement in spatial memory impairment in C57BL/6 mouse model of bilateral common carotid artery occlusion-induced brain ischemia at 50 mg/kg/day, po via gavage at 24 hrs post surgery measured on day 9 to 12 by novel object recognition test; assay type: functional, organism-based
Mus musculus [12] = test: as §1, with “number of virtual platform crossing” for “swimming distance”; assay type: functional, organism-based
Mus musculus [13] = test: Cognitive enhancing effect in C57BL/6 mouse model of bilateral common carotid artery occlusion-induced brain ischemia assessed as effect on total arm entries at 10 to 50 mg/kg/day, po via gavage at 24 hrs post surgery on day 8 after […] of drug administration by Y-maze test; assay type: functional, organism-based
Mus musculus [14] = test: Improvement in visual recognition effect in C57BL/6 mouse model of bilateral common carotid artery occlusion-induced brain ischemia at 50 mg/kg/day, po via gavage at 24 hrs post surgery measured on day 9 to 12 by novel object recognition test; assay type: functional, organism-based
SH-SY5Y [15] = test: Neuroprotective activity in human SH-SY5Y cells assessed as reduction in NMDA-induced NR2B upregulation preincubated for 6 hrs followed by NMDA addition and further incubated for 30 mind and measured after 4 hrs by Western blot analysis; assay type: functional, cell-based
[16] = Half-life in human liver microsomes at 10 uM preincubated for 10 mins followed by addition of NADPH and measured for 5 to 60 mins; assay type: ADME, Microsome
[17] = Metabolic stability in human liver microsomes assessed as parent compound remaining at 10 uM measured after 60 mins; assay type: ADME, Microsome; conditions: read-out: Stability
Mus musculus [18] = test: Improvement in spatial memory impairment in C57BL/6 mouse model of bilateral common carotid artery occlusion-induced brain ischemia at 50 mg/kg/day, po via gavage at 24 hrs post surgery after day 17; assay type: functional, organism-based
Mus musculus [19] = test: as §1, with “decrease” for “increase”, “escape latency” for “swimming distance”; assay type: functional, organism-based
[20] = Clearance in human liver microsomes at 10 uM preincubated for 10 mins followed by addition of NADPH and measured for 5 to 60 mins; assay type: ADME, Microsome
[21] = molecular target: T1, Glutamate [NMDA] receptor (Homo sapiens); test: Inhibition of NMDA receptor in NMDA-induced human SH-SY5Y cells assessed as increase in phosphorylated ERK1/2 level preincubated for 6 hrs followed by NMDA addition and further incubated for 30 mind and measured after 4 hrs by Western blot analysis; assay type: cell-based

Row | Structure (SMILES) | viability at 5 µM (SH-SY5Y [1]) [%] | viability at 0.5 µM (SH-SY5Y [2]) [%] | viability at 0.05 µM (SH-SY5Y [3]) [%] | further results
1 | COc1ccc(CN2C(=O)CC[C@H]2C(=N)NCc2ccccc2)cc1 | 17.9 | 21 | 12.3 | 
2 | Cc1ccc(CN2C(=O)CC[C@H]2C(=N)NCc2ccccc2)cc1 | 24.8 | 23.5 | 17.1 | 
3 | COc1ccc(CNC(=N)[C@@H]2CCC(=O)N2Cc2ccc(OC)cc2)cc1 | 33.6 | 24.8 | 24.2 | 
4 | N=C(NCc1ccccc1)[C@@H]1CCC(=O)N1Cc1ccccc1 | 20.7 | 27.9 | 16.6 | 
5 | N=C(NCc1ccc(O)cc1)[C@@H]1CCC(=O)N1Cc1ccccc1[N+](=O)[O-] | 30.4 | 26.9 | 20 | 
6 | COc1ccc(CNC(=N)[C@@H]2CCC(=O)N2Cc2ccc(F)cc2)cc1 | 38.1 | 36.7 | 15.8 | 
7 | N=C(NCc1ccccc1)[C@@H]1CCC(=O)N1Cc1ccc(F)cc1 | 31.4 | 23.3 | 13.3 | 
8 | N=C(NCc1ccccc1)[C@@H]1CCC(=O)N1Cc1ccccc1[N+](=O)[O-] | 25.3 | 28.8 | 10.1 | 
9 | C[C@@H]([C@@H](O)c1ccc(O)cc1)N1CCC(Cc2ccccc2)CC1 [(S)-IFENPRODIL] | 41 | 40.4 | 29.4 | inhibition [4]: Active
10 | COc1ccc(CNC(=N)[C@@H]2CCC(=O)N2Cc2ccc(C)cc2)cc1 | 29.5 | 21.9 | 19.5 | 
11 | N=C(NCc1ccc(O)cc1)[C@@H]1CCC(=O)N1Cc1ccccc1 | 37.6 | 35.4 | 19.8 | 
12 | COc1ccc(CNC(=N)[C@@H]2CCC(=O)N2Cc2ccccc2[N+](=O)[O-])cc1 | 25.4 | 21.1 | 18.1 | 
13 | N=C(NCc1ccc(O)cc1)[C@@H]1CCC(=O)N1Cc1ccc([N+](=O)[O-])cc1 | 34.5 | 31.3 | 25.9 | 
14 | N=C(NCc1ccccc1)[C@@H]1CCC(=O)N1Cc1ccc([N+](=O)[O-])cc1 | 25.6 | 24 | 13.7 | 
15 | COc1ccc(CN2C(=O)CC[C@H]2C(=N)NCc2ccc(O)cc2)cc1 | 26.6 | 20.5 | 16 | 
16 | Cc1ccc(CN2C(=O)CC[C@H]2C(=N)NCc2ccc(O)cc2)cc1 | 23.8 | 21.9 | 20.5 | 
17 | COc1ccc(CNC(=N)[C@@H]2CCC(=O)N2Cc2ccccc2)cc1 | 19.5 | 23.6 | 7.1 | 
18 | Cl.N=C(NCc1ccc(O)cc1)[C@@H]1CCC(=O)N1Cc1ccc(F)cc1 | 48.6 | 42 | 35.2 | Activity (Mus musculus [5]): Active; Activity (Mus musculus [6]): Active; inhibition [4]: Active; Activity (Mus musculus [7]): Active; Activity (Mus musculus [8]): Active; Activity (Mus musculus [9]): Active; Activity (Mus musculus [10]): Active; Activity (Mus musculus [11]): Active; Activity (Mus musculus [12]): Active; Activity (Mus musculus [13]): inactive; Activity (Mus musculus [14]): Active; Activity (SH-SY5Y [15]): Active; half-life at 10 µM [16]: > 2.42 h; remaining at 1 h, 10 µM [17]: 92.7%; Activity (Mus musculus [18]): Active; Activity (Mus musculus [19]): Active; CLint [20]: < 9.6 µL/min/mg; inhibition [21]: Active
19 | COc1ccc(CNC(=N)[C@@H]2CCC(=O)N2Cc2ccc([N+](=O)[O-])cc2)cc1 | 35.2 | 25.4 | 14.3 | 
